Experimental data: patent US20230048576A1, “COMPOUNDS FOR THE TREATMENT OF NEUROPATHIC PAIN” (City of Hope, priority 2019, published 2023)
Several values for one entry are separate records, joined by “and”; a condition that tells them apart may be missing. Equal entries are not always repeated. Marks after values point to notes of the source that are not given here.

Legend:
[1] = test system: Taxol-induced neuropathic pain; experiment: Von Frey test (mechanical allodynia) in Taxol induced model of neuropathic pain; assay type: in vivo, rat; conditions: Group 2; for mean Von Frey force required for withdrawal: 150 mg/kg IP
Experimental: (§1) Neuropathic pain was induced by intraperitoneal administration of Taxol at a dose level of 6 mg/kg on study days 0-6 and 12 mg/kg on study days 7-12. Following injection of Taxol animals experienced pain as was assessed using the von Frey test. The development of neuropathic pain was confirmed by measuring mechanical allodynia (Von Frey test) on study day 13 (for inclusion) and on study day 14 (1 hour and 2 hour post dosing) and 24 hour post first dosing.
All data are presented as means±SEM. Each treatment group was compared to the Vehicle group using Two way ANOVA (for VF) followed by Tukey post-test (GraphPad). Vehicle group is compared to naïve group using T-test. A p value<0.05 is considered to represent a significant difference.
The response to tactile allodynia was evaluated using the Von Frey apparatus (Touch Test®). The rat was placed in an enclosure and positioned on a metal mesh surface, but allowed to move freely. A set of dull monofilaments provide an increasing force was applied on the animal plantar surface of the paw. The lowest force requires for animal paw withdrawal was recorded. Low force values recorded in this test indicate a painful state.

[2] = Mean group body weight in Taxol model; assay type: in vivo, rat; conditions: 150 mg/kg IP, Group 2
Experimental: as §1

[3] = test system: CNS activity (motor coordination and balance); experiment: Rotarod test; assay type: in vivo, rats; conditions: 150 mg/kg i.p.; 1 and 6 hr post-dosing
Experimental: The objective of this study was to evaluate the potential CNS effects of LR-90 and gabapentin (the latter a widely used drug for neuropathic pain) in rats. LR-90 in 20% HPβCD formulation was delivered at a dose of 50 or 100 mg/kg by oral gavage and gabapentin (150 mg/kg) was delivered by i.p. injection. The rotarod test was employed to measure the CNS activity (motor coordination and balance) and the performance time was recorded at 0 (baseline), 1, 6 and 24 hr post-dose.

[4] = Survival of animals during the study; assay type: in vivo, rat; conditions: 150 mg/kg IP, Group 2
Experimental: as §1

In the case of `NCC1(CC(=O)O)CCCCC1` [Gabapentin, reference compound], the “mean Von Frey force required for withdrawal” value (“mean Von Frey force required” below) ([1]; Baseline) is reported as 57.88 g, the “mean Von Frey force required” value ([1]; Day 13 pre dosing) is reported as 9.81 g and the “mean Von Frey force required” value ([1]; Day 14 1 hour post dosing) is reported as 45.13**** g. The “mean Von Frey force required” value ([1]; Day 14 2 hours post dosing) was 55.75±2.78 g and 55.75**** g, the “mean Von Frey force required” value ([1]; Day 15 24 hours post dosing) was 19.56 g and the “effect on neuropathic pain compared to the vehicle group (Von Frey test)” value ([1]; 150 mg/kg, 1 hour and 2 hour post dosing on study day 14) was “statistically significantly reduced the neuropathic pain”. For the same compound, the “Mean group body weight” value ([2]; Baseline) was 223.38 g, the “Mean group body weight” value ([2]; Day 1) was 235.25 g and the “Mean group body weight (% from baseline)” value ([2]; Day 1) was 105.31%. For the same compound, the “Mean group body weight” value ([2]; Day 3) was 237.50 g, the “Mean group body weight (% from baseline)” value ([2]; Day 3) was 106.31% and the “Mean group body weight” value ([2]; Day 5) was 258.13 g. The “Mean group body weight (% from baseline)” value ([2]; Day 5) was 115.54%, the “Mean group body weight” value ([2]; Day 7) was 269.25 g and the “Mean group body weight (% from baseline)” value ([2]; Day 7) was 120.50%. For the same compound, the “Mean group body weight” value ([2]; Day 9) was 278.75 g, the “Mean group body weight (% from baseline)” value ([2]; Day 9) was 124.74% and the “Mean group body weight” value ([2]; Day 11) was 287.63 g. For the same compound, the “Mean group body weight (% from baseline)” value ([2]; Day 11) was 128.71%, the “Mean group body weight” value ([2]; Day 13) was 289.50 g and the “Mean group body weight (% from baseline)” value ([2]; Day 13) was 129.56%. The “Mean group body weight” value ([2]; Day 16) was 281.00 g, the “Mean group body weight (% from baseline)” value ([2]; Day 16) was 125.68% and the “Mean group body weight” value ([2]; Day 20) was 274.38 g. For the same compound, the “Mean group body weight (% from baseline)” value ([2]; Day 20) was 122.79%, the “Mean group body weight” value ([2]; Day 23) was 263.38 g and the “Mean group body weight (% from baseline)” value ([2]; Day 23) was 117.94%. The “Mean group body weight” value ([2]; Day 26) was 247.75 g, the “Mean group body weight (% from baseline)” value ([2]; Day 26) was 113.52% and the “rotarod performance time compared with vehicle control group” value [3] was “significantly decreased”. For the same compound, the “Survived Animals in %” value ([4]; Study Day 13) was 100%, the “Survived Animals in %” value ([4]; Study Day 14) was 100% and the “Survived Animals in %” value ([4]; Study Day 15) was 100%. The “Survived Animals in %” value ([4]; Study Day 16) was 100%, the “Survived Animals in %” value ([4]; Study Day 17) was 100% and the “Survived Animals in %” value ([4]; Study Day 18) was 100%. For the same compound, the “Survived Animals in %” value ([4]; Study Day 19) was 100%, the “Survived Animals in %” value ([4]; Study Day 20) was 100% and the “Survived Animals in %” value ([4]; Study Day 21) was 100%. The “Survived Animals in %” value ([4]; Study Day 22) was 100%, the “Survived Animals in %” value ([4]; Study Day 23) was 100% and the “Survived Animals in %” value ([4]; Study Day 24) was 88%. The “Survived Animals in %” value ([4]; Study Day 25) was 63% and the “Survived Animals in %” value ([4]; Study Day 28) was 50%.
